Laboratory results: patent US20070293399A1, “SUBSTITUTED DIAMINO-1,3,5-TRIAZINES, PROCESSES FOR THEIR PREPARATION AND THEIR USE AS HERBICIDES AND CROP GROWTH REGULATORS” (Bayer CropScience AG, priority 2006, published 2007)

Key:
[1] = test system: Sinapis alba, Echinochloa crus-galli, Lolium multiflorum, Stellaria media, Cyperus iria, Amaranthus retroflexus, Setaria viridis, Avena sativa, Lamium …; test: Post-emergence herbicidal action (greenhouse pot test); format: in vivo; conditions: application rate of 1 kg and less of active substance per hectare; treated at three-leaf stage; scored visually after approx. 3 to 4 weeks in comparison to untreated controls
Protocol: Seeds or rhizome pieces of mono- and dicotyledonous weeds were placed in sandy loam in plastic pots, covered with soil and grown in a greenhouse under good growth conditions. Three weeks after the sowing, the test plants were treated at the three-leaf stage. The inventive compounds formulated as spray powders or as emulsion concentrates were sprayed onto the green plant parts in various dosages with an application rate of from 600 to 800 l/ha of water (converted). After the test plants had been left to stand in the greenhouse under optimal growth conditions for approx. 3 to 4 weeks, the action of the preparations was scored visually in comparison to untreated controls. The inventive compositions also had good post-emergence herbicidal activity against a wide spectrum of economically important gramineous and broadleaf weeds.

[2] = test system: Stellaria media, Lolium multiflorum, Amaranthus retroflexus, Sinapis alba, Avena sativa and Setaria viridis; test: Pre-emergence herbicidal action (greenhouse pot test); format: in vivo; conditions: application rate of 1 kg or less of active substance per hectare; scored visually after 3 to 4 weeks in comparison to untreated controls
Source text: Seeds or rhizome pieces of mono- and dicotyledonous weed plants were placed in sandy loam in plastic pots and covered with soil. The inventive compounds, which have been formulated in the form of wettable powders or emulsion concentrates, were then applied to the surface of the covering soil as an aqueous suspension or emulsion in different dosages with an application rate of from 600 to 800 l/ha of water (converted).

SMILES	herbicidal action against harmful plants in the post-emergence method [1]	herbicidal action against harmful plants in the pre-emergence method [2]
C[C@@H](F)c1nc(NCCC#N)nc(N[C@@H]2CCCc3ccccc32)n1 [Compound 2.38, 3-({4-[(1R)-1-Fluoroethyl]-6-[(1R)-1,2,3,4-tetrahydronaphth-1-ylamino]-1,3,5-triazin-2-yl}amino)propanenitrile]	very good herbicidal action	very good herbicidal action
CCC(=O)Nc1nc(CF)nc(NC2c3cc(F)ccc3CC2C)n1 (racemic) [Compound 1.12]	very good herbicidal action	very good herbicidal action
CC(=O)Nc1ncnc(NC2c3cc(F)ccc3CC2C)n1 (racemic) [Compound 1.1]	very good herbicidal action	very good herbicidal action
C[C@@H](F)c1nc(N=CN(C)C)nc(N[C@@H]2CCCc3ccccc32)n1 [Compound 2.154]	very good herbicidal action	very good herbicidal action
Cc1ccc(NC(=O)Nc2nc(NC3c4cc(C)ccc4CC3C)nc(C(C)F)n2)cc1 (stereo not drawn) [Compound 2.116]	very good herbicidal action	very good herbicidal action
CC(=O)Nc1nc(N[C@H]2c3cc(C)ccc3C[C@@H]2C)nc([C@@H](C)F)n1 [Compound 2.13]	very good herbicidal action	very good herbicidal action
C[C@@H](F)c1nc(NC(=O)C2CC2)nc(N[C@@H]2CCCc3ccccc32)n1 [Compound 2.68]	very good herbicidal action	very good herbicidal action
CCCCNC(=S)Nc1nc(N[C@H]2c3cc(C)ccc3C[C@@H]2C)nc([C@@H](C)F)n1 [Compound 2.132]	very good herbicidal action	very good herbicidal action
Cc1ccc2c(c1)[C@H](Nc1nc(N=CN(C)C)nc(C(F)F)n1)[C@H](C)C2 [Compound 2.176]	very good herbicidal action	very good herbicidal action
CC(=O)Nc1nc(N[C@@H]2CCCc3ccccc32)nc([C@@H](C)F)n1 [Compound 2.31]	very good herbicidal action	very good herbicidal action
Cc1ccc2c(c1)[C@H](Nc1nc(NC(=O)C(F)(F)F)nc([C@@H](C)F)n1)[C@@H](C)C2 [Compound 2.26]	very good herbicidal action	very good herbicidal action
CC(=O)Nc1nc(NC2CCOc3c(C)cc(F)cc32)nc(C2CC2)n1 (racemic) [Compound 1.31]	very good herbicidal action	very good herbicidal action
COC(C)(C)CNC(=O)Nc1nc(NC2c3cc(C)ccc3CC2C)nc(C(C)F)n1 (stereo not drawn) [Compound 2.105]	very good herbicidal action	very good herbicidal action
C[C@@H]1Cc2ccccc2[C@@H]1Nc1nc(N=CN(C)C)nc(C(F)F)n1 [Compound 2.175]	very good herbicidal action	very good herbicidal action
CC(=Nc1nc(N[C@@H]2CCCc3ccccc32)nc([C@@H](C)F)n1)N(C)C [Compound 2.159, N′-{4-[(1R)-1-Fluoroethyl]-6-[(1R)-1,2,3,4-tetrahydronaphth-1-ylamino]-1,3,5-triazin2-yl}-N,N-dimethylethanimide amide]	very good herbicidal action	very good herbicidal action
CC(=O)Nc1ncnc(N[C@H]2c3cc(C)ccc3C[C@@H]2C)n1 [Compound 2.9]	very good herbicidal action	very good herbicidal action
Cc1ccc2c(c1)C(Nc1nc(NC(=S)Nc3ccc(F)cc3)nc(C(C)F)n1)C(C)C2 (stereo not drawn) [Compound 2.129]	very good herbicidal action	very good herbicidal action
Cc1ccc2c(c1)[C@H](Nc1nc(NC(=O)C(C)(C)C)nc(C(F)F)n1)[C@@H](C)C2 [Compound 2.151]	very good herbicidal action	very good herbicidal action
